This is an account of results in US7667036B2, “Pyrazolo[1,5-a]pyrimidine derivatives” (Teijin Pharma Limited, priority 2004, dated 2010).

A word on the IC50: it is the concentration needed to halve the response being measured.

The assay concerns the target MAPKAP-K2 (Homo sapiens, UniProt P49137). Put plainly: MAPKAP-K2 enzyme activity inhibition assay, Method B (33P-ATP, MultiScreen-PH plate). Format: biochemical. The conditions noted are these: recombinant human MAPKAP-K2, 0.5% DMSO, 30 min room temperature, read-out: Inhibitory activity (MAPKAP-K2 IC50 class). The protocol: The assay of inhibitory activity was performed according to Method A described below for Compound No. 1, 2, 3, 4, 20, 21, 22, 23, 24, 25, 26, 79, 80 and 81, and Method B described below for the other compounds.
A compound was dissolved in […] to make its concentration to 20 mmol/L, and the resultant solution was stored at −20° C. The stock solution was sequentially diluted with DMSO to prepare a solution having a 200-fold concentration of the required range. Further the solution was diluted with water to 1:20 to prepare a solution having a 10-fold concentration of the required range, and an aliquot of 5 μL of each solution was used for every reaction with 50 μL. During the continuous dilution of all compounds, the final DMSO concentration was maintained at 0.5%. Compounds were routinely tested at a final concentration ranging from 100 μmol/L to 0.03 μmol/L, but were sometimes tested at a lower concentration depending upon their activity.
The reaction was initiated by adding 25 μL of a peptide substrate solution [60 μmol/L substrate peptide, 20 μmol/L ATP, 50 mmol/L Tris buffer (pH 7.5), 0.1 mmol/L EGTA, 0.1% β-mercaptoetanol, 20 mmol/L magnesium acetate, and 0.1 μCi [γ-33P]ATP (specific radio activity: approximately 110 TBq/mmol)] to 5 μL of a 5% DMSO solution of the test compound and subsequently adding 20 μL of a MAPKAP-K2 enzyme solution [10 mU recombinant human MAPKAP-K2, 50 mmol/L Tris buffer (pH 7.5), 0.1 mmol/L EGTA, 0.1% β-mercaptoethanol, 0.1% BSA]. After performing the reaction for 30 min at room temperature, an equivalent volume of 200 mmol/L phosphoric acid solution was added to terminate the reaction. Subsequently, 90 μL of the reaction product was adsorbed on a MultiScreen-PH Plate (Millipore) and then rinsed with 100 mmol/L phosphoric acid solution. After drying the plate, 30 μL of MicroScint-O (Packard BioScience) was added, and further the count per minute was measured by a scintillation counter to determine the inhibitory activity. The substrate peptide was Lys-Lys-Leu-Asn-Arg-Tlr-Leu-Ser-Val-Ala.
• % Control=(X−B)/(Tot−B)×100 • % Inhibition=100—% Control • X=count per minute of a test compound well • B=count per minute of a well without containing enzyme • Tot=count per minute of a well with DMSO solvent only, without containing the test compound (MAPKAP-K2 inhibitory activity) • IC50 value=the compound concentration at 50% inhibition

Chain of MAPKAP-K2 (P49137 whole entry): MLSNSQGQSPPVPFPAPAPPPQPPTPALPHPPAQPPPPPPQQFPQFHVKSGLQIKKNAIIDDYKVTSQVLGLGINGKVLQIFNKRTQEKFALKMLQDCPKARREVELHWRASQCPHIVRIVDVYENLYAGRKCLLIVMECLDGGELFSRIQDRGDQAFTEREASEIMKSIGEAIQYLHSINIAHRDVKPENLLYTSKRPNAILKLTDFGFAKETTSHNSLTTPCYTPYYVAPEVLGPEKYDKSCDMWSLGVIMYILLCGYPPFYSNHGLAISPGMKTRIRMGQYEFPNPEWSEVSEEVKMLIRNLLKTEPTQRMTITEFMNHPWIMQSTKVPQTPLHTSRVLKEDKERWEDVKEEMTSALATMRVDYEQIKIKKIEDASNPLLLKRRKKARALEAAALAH

Consider `CCC[C@@H]1CCNC[C@H]1Oc1nc2ccnn2c(Nc2ccc(OCC)cc2)c1C` (racemic) [Compound No. 16, (dl)-(4-ethoxyphenyl)-[6-methyl-5-(trans-4-propylpiperidin-3-yloxy)pyrazolo[1,5-a]pyrimidin-7-yl]amine], for which the IC50 lay in the range of 2 to 20 µM. For `Cc1c(O[C@H]2CC[C@@H](N)CC2)nc2ccnn2c1Nc1ccc(OCc2ccccc2)cc1` [compound 76], the IC50 was not above 2 µM. The figure for `CCOc1ccc(Nc2c(C)c(O[C@@H]3CNCC[C@H]3CC(=O)N(C)C)nc3ccnn23)cc1` [compound 84] is 2 to 20 µM; for `CCOc1ccc(Nc2c(-c3ccccc3)c(OCCN)nc3ccnn23)cc1` [compound 273] it is 20 to 100 µM.

As to `Cc1c(OC2CCCNC2)nc2ccnn2c1Nc1ccc(S(=O)(=O)N2CCOCC2)cc1` (centres unmarked) [compound 61], the IC50 is 2 to 20 µM. In the case of `Cc1c(O[C@H]2CC[C@H](N)CC2)nc2ccnn2c1Nc1ccc(OCCOCc2ccccc2)cc1` [Compound No. 91, [5-(trans-4-aminocyclohexyloxy)-6-methylpyrazolo[1,5-a]pyrimidin-7-yl]-[4-(2-benzyloxyethoxy)phenyl]-amine], the concentration for half-maximal inhibition (IC50) is not above 2 µM.

As for `CCOc1ccc(Nc2c(C)c(OC[C@H]3CCCN3)nc3ccnn23)cc1` [compound 260], the concentration for half-maximal inhibition (IC50) was 20 to 100 µM. The figure for `Cc1c(OC2CCCNC2)nc2ccnn2c1Nc1ccc(Cc2ccccc2)cc1` (centres unmarked) [compound 52] is 2 to 20 µM. For the compound `CCOc1ccc(Nc2c(C)c(O[C@H]3CNCC[C@@H]3CCO)nc3ccnn23)cc1` [compound 41], the IC50 was not above 2 µM. Consider `CCOc1ccc(Nc2c(C)c(OC3CCNCC3)nc3ccnn23)cc1` [compound 239], for which the 50% inhibitory concentration (IC50) is not above 2 µM. As for `CCOc1ccc(Nc2c(C)c(O[C@@H]3CNCC[C@H]3CCO)nc3ccnn23)cc1` [compound 27], the IC50 was not above 2 µM.

Regarding `CCn1c2ccccc2c2cc(Nc3c(C)c(OC4CCCNC4)nc4ccnn34)ccc21` (centres unmarked) [compound 56], the half-maximal inhibitory concentration (IC50) fell in the range of 2 to 20 µM.

With `Cc1c(OCCN)nc2ccnn2c1NCc1ccccc1` [compound 270], the IC50 was 20 to 100 µM. With `CCOc1ccc(Nc2c(C)c(OC[C@@H]3CCCN3)nc3ccnn23)cc1` [compound 261], the IC50 lay within 20 to 100 µM. As to `CCOc1ccc(Nc2c(C)c(OC(CN)CN)nc3ccnn23)cc1` [compound 42], the half-inhibitory concentration (IC50) was in the range of 20 to 100 µM. Then `CC(=O)c1ccc(-c2ccc(Nc3c(C)c(O[C@H]4CC[C@@H](N)CC4)nc4ccnn34)cc2)s1` [compound 92], with not above 2 µM; and `Cc1c(O[C@H]2CC[C@@H](N)CC2)nc2ccnn2c1Nc1ccc2nc(SC(C)C)sc2c1` [compound 75], with not above 2 µM. Take `CCOc1ccc(Nc2c(C)c(O[C@@H]3CNCC[C@H]3CC(N)=O)nc3ccnn23)cc1` (racemic) [Compound No. 82, (dl)-trans-2-{3-[7-(4-ethoxyphenyamino)-6-methylpyrazolo[1,5-a]pyrimidin-5-yloxyl-p]peridin-4-yl}acetamide]: the concentration for half-maximal inhibition (IC50) lay within 2 to 20 µM.

Consider `CCOc1ccc(Nc2c(C)c(OCCCN)nc3ccnn23)cc1` [compound 29], for which the IC50 lay within 20 to 100 µM. The figure for `CCOc1ccc(Nc2c(C)c(OCCN)nc3ccnn23)cc1` [compound 28] is 20 to 100 µM; for `COC(=O)c1ccc(Nc2c(C)c(O[C@H]3CC[C@@H](N)CC3)nc3ccnn23)cc1` [compound 67] it is 20 to 100 µM.

In the case of `COc1ccc(Cl)cc1Nc1c(C)c(O[C@H]2CC[C@@H](N)CC2)nc2ccnn12` [compound 64], the half-inhibitory concentration (IC50) was in the range of 2 to 20 µM. Then `N[C@H]1CC[C@@H](Oc2cc(Nc3ccc(F)c(Cl)c3)n3ncc(I)c3n2)CC1` [compound 19], with 20 to 100 µM; and `c1ccc(COc2ccc(Nc3c(-c4ccccc4)c(OC4CCCNC4)nc4ccnn34)cc2)cc1` (centres unmarked) [compound 275], with 2 to 20 µM. Then `Cc1c(OC2CCCNC2)nc2ccnn2c1Nc1ccc(OC(F)(F)F)c(Cl)c1` (centres unmarked) [compound 57], with 2 to 20 µM; and `CCOc1ccc(Nc2c(C)c(OC(CN)c3ccccc3)nc3ccnn23)cc1` (centres unmarked) [compound 31], with 20 to 100 µM. The figure for `Cc1c(OC2CCCNC2)nc2ccnn2c1NCc1ccccc1` (centres unmarked) [compound 269] is 2 to 20 µM; for `CCOc1ccc(Nc2c(C)c(OCCNC)nc3ccnn23)cc1` [compound 263] it is 20 to 100 µM; for `COc1cc(Nc2c(C)c(OC3CCCNC3)nc3ccnn23)cc(OC)c1` (centres unmarked) [compound 50] it is 20 to 100 µM. With `CCc1c(O[C@H]2CC[C@@H](N)CC2)nc2ccnn2c1Nc1ccc(F)c(Cl)c1` [compound 10], the IC50 was 2 to 20 µM. On to `CCOc1ccc(Nc2c(C)c(OC3CCN(C)CC3)nc3ccnn23)cc1` [compound 253], for which the IC50 fell in the range of 2 to 20 µM. Then `Cc1c(OC2CCCNC2)nc2ccnn2c1Nc1ccc2nc(SC(C)C)sc2c1` (centres unmarked) [compound 74], with 2 to 20 µM. On to `CCOc1ccc(Nc2c(C)c(O[C@@H]3CNCC[C@H]3CC(=O)NC)nc3ccnn23)cc1` [compound 83], for which the IC50 fell in the range of 2 to 20 µM.

On to `COc1ccc(Cl)cc1Nc1c(C)c(OC2CCCNC2)nc2ccnn12` (centres unmarked) [compound 55], for which the IC50 fell in the range of 20 to 100 µM. The figure for `Cc1c(OC2CCCNC2)nc2ccnn2c1NC1CCCC1` (centres unmarked) [compound 272] is 2 to 20 µM; for `Cc1c(O[C@H]2CC[C@@H](N)CC2)nc2ccnn2c1Nc1ccc(I)cc1` [compound 77] it is not above 2 µM. Then `Cc1c(OC2CCCNC2)nc2ccnn2c1Nc1cc(OC2CCCNC2)c(C#N)cc1F` (centres unmarked) [compound 49], with 20 to 100 µM; and `Cc1c(O[C@H]2CC[C@@H](N)CC2)nc2ccnn2c1NCc1ccccc1` [compound 268], with 2 to 20 µM; and `CCOc1ccc(Nc2c(C)c(OCC(C)=O)nc3ccnn23)cc1` [compound 259], with 20 to 100 µM. For the compound `CCOc1ccc(Nc2c(CCCO)c(O[C@H]3CC[C@H](N)CC3)nc3ccnn23)cc1` [Compound No. 88, 3-[5-(trans-4-aminocyclohexyloxy)-7-(4-ethoxyphenylamino)-pyrazolo [1,5-a]pyrimidin-6-yl]propan-1-ol], the IC50 was not above 2 µM.

Take `Cc1c(O[C@H]2CC[C@@H](N)CC2)nc2ccnn2c1Nc1ccc(SC(F)(F)F)cc1` [compound 73]: the half-inhibitory concentration (IC50) is not above 2 µM.

For `CCOc1ccc(Nc2c(C)c(OC3CCN(C)C3)nc3ccnn23)cc1` (centres unmarked) [compound 256], the half-inhibitory concentration (IC50) lay in the range of 20 to 100 µM. The figure for `Cc1c(O[C@H]2CC[C@@H](N)CC2)nc2ccnn2c1Nc1ccc(C(=O)c2ccccc2)cc1` [compound 70] is not above 2 µM; for `CCc1c(O[C@H]2CC[C@@H](N)CC2)nc2ccnn2c1Nc1ccc(I)cc1` [compound 102] it is not above 2 µM. `COC(=O)c1ccc(Nc2c(C)c(OC3CCCNC3)nc3ccnn23)cc1` (centres unmarked) [compound 47]: the IC50 is 2 to 20 µM. With `CCOc1ccc(Nc2c(C)c(O[C@@H]3CNCC[C@H]3CC(=O)NC3CC3)nc3ccnn23)cc1` [compound 86], the concentration for half-maximal inhibition (IC50) was 2 to 20 µM. The figure for `Cc1c(OC2CCCNC2)nc2ccnn2c1Nc1ccc(C(=O)c2ccccc2)cc1` (centres unmarked) [compound 51] is 2 to 20 µM.

Take `CCOc1ccc(Nc2c(C)c(O[C@@H]3CNCC[C@H]3CC(=O)NCc3ccccc3)nc3ccnn23)cc1` [compound 85]: the 50% inhibitory concentration (IC50) lay in the range of 2 to 20 µM. On to `N[C@H]1CC[C@@H](Oc2nc3ccnn3c(Nc3ccc(OCc4ccccc4)cc3)c2-c2ccccc2)CC1` [compound 274], for which the half-inhibitory concentration (IC50) was in the range of 2 to 20 µM.

Turning to `Cc1ccc2nc(-c3ccc(Nc4c(C)c(OC5CCCNC5)nc5ccnn45)cc3)sc2c1` (centres unmarked) [compound 60], the half-inhibitory concentration (IC50) was not above 2 µM.
